From PubChem BioAssay (NCI)
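Cells were grown in 96-well plates and exposed to each compound for 48 hours at five concentrations; endpoints were interpolated linearly between bracketing concentrations, or set to the highest concentration if not reached. TGI: concentration producing complete growth inhibition.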

Key:
Assay in all cases: inhibition of tumour cell growth, NCI panel, 48 h
OVCAR-5 ovarian = test system: OVCAR-5 ovarian
K-562 leukemia = test system: K-562 leukemia
U251 CNS = test system: U251 CNS
NCI/ADR-RES ovarian = test system: NCI/ADR-RES ovarian
NCI-H460 lung = test system: NCI-H460 lung
SNB-19 CNS = test system: SNB-19 CNS
A549 NSCLC = test system: A549 NSCLC
EKVX NSCLC = test system: EKVX NSCLC
SK-MEL-28 melanoma = test system: SK-MEL-28 melanoma
SNB-75 CNS = test system: SNB-75 CNS
COLO 205 colon = test system: COLO 205 colon
DU-145 prostate = test system: DU-145 prostate
SK-MEL-5 melanoma = test system: SK-MEL-5 melanoma
OVCAR-3 ovarian = test system: OVCAR-3 ovarian
UO-31 renal = test system: UO-31 renal
SR leukemia = test system: SR leukemia
M14 melanoma = test system: M14 melanoma
SF-295 CNS = test system: SF-295 CNS
RPMI-8226 leukemia = test system: RPMI-8226 leukemia
UACC-62 melanoma = test system: UACC-62 melanoma
KM12 colon = test system: KM12 colon
786-0 renal = test system: 786-0 renal
HL-60(TB) leukemia = test system: HL-60(TB) leukemia
HOP-62 NSCLC = test system: HOP-62 NSCLC
HCT-15 colon = test system: HCT-15 colon
OVCAR-8 ovarian = test system: OVCAR-8 ovarian
NCI-H23 lung = test system: NCI-H23 lung
SW-620 colon = test system: SW-620 colon
MDA-N = test system: MDA-N
SN12C renal = test system: SN12C renal
HCC-2998 colon = test system: HCC-2998 colon
A498 renal = test system: A498 renal
TK-10 renal = test system: TK-10 renal
MCF7 breast = test system: MCF7 breast
RXF 393 renal = test system: RXF 393 renal
BT-549 breast = test system: BT-549 breast
MDA-MB-435 = test system: MDA-MB-435
PC-3 prostate = test system: PC-3 prostate
HCT-116 colon = test system: HCT-116 colon
SF-268 CNS = test system: SF-268 CNS
HS 578T breast = test system: HS 578T breast
IGROV1 ovarian = test system: IGROV1 ovarian
UACC-257 melanoma = test system: UACC-257 melanoma
SK-OV-3 ovarian = test system: SK-OV-3 ovarian
MOLT-4 leukemia = test system: MOLT-4 leukemia
NCI-H226 lung = test system: NCI-H226 lung
ACHN renal = test system: ACHN renal
HOP-92 NSCLC = test system: HOP-92 NSCLC
SF-539 CNS = test system: SF-539 CNS
T-47D breast = test system: T-47D breast
HT29 colon = test system: HT29 colon
MALME-3M melanoma = test system: MALME-3M melanoma
CCRF-CEM leukemia = test system: CCRF-CEM leukemia

Measured: TGI

COc1cc(COC(=O)N2CCC2C(=O)O)c([N+](=O)[O-])cc1OC (stereo not drawn)
> 100 µM: all assays above
